Source: publication PMC6424980, “Distinct G protein-coupled receptor phosphorylation motifs modulate arrestin affinity and activation and global conformation” (Nature Communications, 2019)
Entries after “also recorded” stand apart in the source; their conditions may differ.

Experiments:
arrestin-2 = assay: Fluorescence anisotropy binding of fluorescein-labelled peptides to arrestin-2; parameters: species or system human
From the text: (§1) Synthesized cDNAs of bovine arrestin-1, human arrestin-2 and human arrestin-3 were ordered from Genewiz, amplified by PCR and cloned (Supplementary Information Table 5) into the pET-15b vector (Novagen), using the Gibson Assembly protocol. The constructs contained an N-terminal hexa histidine tag linked by a linker that contained a Tobacco Etch Virus cleavage site (TEV; […]). PCR was used to introduce the monomerizing arrestin-1 mutations (F85A, F197A)[58]. Note that this mutant was employed for fluorescence anisotropy, trypsin digestion, and NMR experiments. Wild-type arrestin-2 and -3 were used for fluorescence anisotropy and trypsin digestion experiments. […] The arrestin-1 in this construct had the wild-type sequence. Note that this construct differs slightly from that previously published[59],[60] and was optimized for purification. We verified the functionality of this fusion construct using the standard centrifugal pull-down assay using phosphorylated rhodopsin in native ROS membranes.
0.1–0.2 mg of lyophilized peptide was dissolved in 50 µl of 50 mM phosphate-buffered saline (PBS) buffer at pH 7.0, and then two molar equivalents of fluorescein-5-maleimide dye stock dissolved in dimethylsulfoxid was added. The reaction was carried out at RT in the dark. […] It was dissolved in 50 µl of 20 mM Bis-Tris propane pH 7.0 and 150 mM NaCl and its concentration was determined by absorbance. […]

[1] = molecular target: T1, arrestin-1 (monomerizing mutant F85A, F197A) (Bos taurus, UniProt P08168, F197A/F85A); assay: Fluorescence anisotropy binding of fluorescein-labelled peptides to arrestin-1; parameters: species or system bovine
T1 construct: made in house; host or cells: E. coli NiCo (DE3) cells (New England Biolabs), pET-15b vector
T1 sequence (P08168 whole entry F85A/F197A): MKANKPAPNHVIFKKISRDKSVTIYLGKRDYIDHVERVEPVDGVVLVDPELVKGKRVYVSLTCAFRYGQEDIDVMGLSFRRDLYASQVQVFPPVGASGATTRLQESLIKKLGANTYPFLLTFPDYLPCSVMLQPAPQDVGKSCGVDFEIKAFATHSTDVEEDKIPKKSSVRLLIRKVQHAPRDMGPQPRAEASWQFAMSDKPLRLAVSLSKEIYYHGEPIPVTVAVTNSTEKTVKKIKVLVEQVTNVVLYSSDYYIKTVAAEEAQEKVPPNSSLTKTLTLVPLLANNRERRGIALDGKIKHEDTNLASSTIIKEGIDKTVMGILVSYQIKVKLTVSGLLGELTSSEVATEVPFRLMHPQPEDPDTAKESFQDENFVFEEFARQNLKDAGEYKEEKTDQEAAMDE
From the text: as §1
0.1–0.2 mg of lyophilized peptide was dissolved in 50 µl of 50 mM phosphate-buffered saline (PBS) buffer at pH 7.0, and then two molar equivalents of fluorescein-5-maleimide dye stock dissolved in dimethylsulfoxid was added. The reaction was carried out at RT in the dark. After 1 h the reaction was topped up with 1 ml of ice-cold 100% acetone and stored until the next day at −20 °C. The precipitated peptide was centrifuged (13,000 × g) for 10 min. The labeled and precipitated peptide was sedimented, and the supernatant was removed. The peptide was resuspended again in ice-cold acetone, stored for 1 h at −20 °C and centrifuged (13,000 × g) for 10 min. […] The precipitated peptide was dried at RT in the dark. It was dissolved in 50 µl of 20 mM Bis-Tris propane pH 7.0 and 150 mM NaCl and its concentration was determined by absorbance. A molar extinction coefficient of 70,000/M/cm at pH 7.0 was assumed for calculating the concentration of the labeled peptide stock.
An 11-step serial dilution series of arrestin in 20 mM Bis-Tris propane pH 7.0, 150 mM NaCl, 8 mM 2‑mercaptoethanol, 2% (w/w) BSA, 0.02% (v/v) Tween-20 was prepared and transferred to a black high-bottom 384-well plate (Greiner). As control for free peptide, a position with only buffer was included. The peptide was added at a final concentration of 20 nM to each well. The plate was closed by a clear cover and vortexed for 15 s. Afterwards it was centrifuged (800 × g) for 2 min and stored at RT for 20 min. The reading was performed by default settings of PHERAstar plate-reader (BMG Labtech) and excitation‑/emission-wavelengths of 485 nm (12 nm bandpass)/520 nm (30 nm bandpass) were used. The analysis was performed using Origin2016 (Microcal Inc) software by fitting the data to a one-to-one binding model:2 r=R0+△R*P/Kd+P, where r stands for anisotropy, R0 stands for anisotropy of the ligand, ΔR stands for anisotropy of the complex minus anisotropy of the ligand, P stands for the concentration of protein, and Kd stands for the dissociation constant of the ligand.

[2] = test system: arrestin-1 mutants I72B and F197NBD with nonphosphorylated light-activated rhodopsin in ROS membranes; assay: Ternary complex formation (site-directed fluorescence and centrifugal pull-down); format: biochemical, bovine; details: 10 µM rhodopsin in ROS, 1 µM arrestin-1 I72B or F197NBD, 100 µM peptide, pH 7
From the text: Recombinant bovine arrestin-1 cloned into the pET15b vector was expressed and purified as described. The basic construct was a modified wild-type sequence that contained no native cysteines (C63A, C128S and C143A) nor tryptophans (W194F). Single cysteine residues were introduced by PCR at sites 72 or 197 as previously described. The I72C mutant was labeled with monobromobimane (Thermo Fisher) and is referred to as I72B. The F197C mutant was labeled with N,N′-Dimethyl-N-(Iodoacetyl)-N′-(7-Nitrobenz-2-Oxa-1,3-Diazol-4-yl)Ethylenediamine (IANBD amide, Thermo Fisher) and is referred to as F197NBD. Labeling was carried out as previously described[43],[61]. Both labeled mutants were assessed to be functionally similar to wild-type arrestin-1 using the Extra Meta II assay, which determines the ability of arrestin-1 to bind and stabilize the active Meta II form of rhodopsin[64].
Under dim-red light, samples were prepared that contained nonphosphorylated rhodopsin (10 µM) in ROS membranes, 1 µM arrestin-1 I72B or F197NBD, ±100 µM peptide in 50 mM HEPES, 130 mM NaCl, pH 7 (150 or 200 µl sample volume). One hundred microliters of the sample was used for fluorescence measurements, and the remainder was used for the centrifugal pull-down assay (50 µl per assay). Steady-state fluorescence measurements were performed using a SPEX Fluorolog (1680) instrument in front-face mode. Bimane fluorescence was recorded using an excitation wavelength of 400 nm and emission 424–600 nm, and NBD fluorescence was recorded using an excitation wavelength of 500 nm and emission 524–660 (2 nm step size, 0.5 s integration per point). Excitation slits were narrowed to 0.1−0.2 nm to minimize light-activation of rhodopsin, and emission slits were set at 4 nm. Pull-down analysis was performed by centrifuging samples at 16,000 × g for 10 min at 20 °C. Selected samples were light activated (>495 nm) for 15 s prior to centrifugation (appr. 60 s delay time). Following centrifugation, the supernatants were removed, and the pellets were solubilized in loading buffer containing 2% SDS and subjected to SDS PAGE. Bands were visualized using Coomassie Brilliant Blue.

In the case of “CDDEASTTVSKTETSQVAPA [5P, multiply phosphorylated rhodopsin C-terminus peptide lacking key site pS343]”, the “binding to arrestin-2 (in words)” value (arrestin-2) is reported as “bound well”, the “binding to arrestin-1 (in words)” value [1] is reported as “significant loss of affinity” and the “ternary complex formation (arrestin-1, nonphosphorylated rhodopsin, peptide)” value [2] is reported as “significant reduction of ternary complex formation; also recorded: could still stimulate ternary complex formation”.
